# In patent US7947668B2, “Aminoalkyl sterol compounds having an anti-tumoral and neuroprotective activity” (Institut National de la Sante et de la Recherche Medicale, priority 2002, dated 2011):
# Test system: C57BL/6 mouse spleen monocytes
# Test: Dendritogenesis on C57BL/6 mouse spleen monocytes
# Type: cell-based
# Settings: dose of 1 nM, 36 hours after the start of action
# Experimental: 1) On C57BL/6 Mouse Spleen Monocytes
# 5-week-old mice are sacrificed by cervical dislocation. They are then dissected. The spleens are removed under sterile conditions and then placed in a cold solution (4° C.) containing serum-free culture medium supplemented with antibiotics (streptomycin and penicillin). The spleens are ground in a sterile fume cupboard and then filtered through a 100 μm filter. The eluate is recovered and then centrifuged at 1000 rpm for 5 minutes at 4° C. The cell pellet is resuspended in phosphate-buffered saline (PBS) solution containing […], the purpose of which is to lyze the red blood cells. The suspension is centrifuged at 1000 rpm and the cells are then resuspended in PBS. The washing operation is performed twice. The final resuspension is performed in whole culture medium, and the cells are counted and distributed into six-well dishes at a density of 40 000 cells/ml. Four hours later, the adhering cells are washed vigorously with PBS in order to remove the cells that might remain attached to the adhering cells or to the culture dish.
# The conversion was obtained with a dose of 1 nM, the photograph having been taken 36 hours after the start of action of the product. The test product is that of example 9. The appearance of cellular extensions is observed, which is one of the main characteristics of activated dendritic cells.
row,Molecule,"morphological changes on the mouse monocytes, conversion into dendritic cells"
1,"NCCc1c[nH]cn1 [amine, 2-(1H-imidazol-4-yl)ethylamine, reference compound]",ineffective
2,GM-CSF: cytokine used with IL-4 to differentiate monocytes into dendritic cells,ineffective
3,"CC(C)CCC[C@@H](C)[C@H]1CC[C@H]2[C@@H]3CC=C4C[C@@H](O)CC[C@]4(C)[C@H]3CC[C@]12C [cholesterol, reference compound]",ineffective
4,"CC(C)CCC[C@@H](C)[C@H]1CC[C@H]2[C@@H]3C[C@@H]4O[C@@]45C[C@@H](O)CC[C@]5(C)[C@H]3CC[C@]12C [epoxy-cholesterol derivative, 5,6-α-epoxycholestan-3β-ol, reference compound]",ineffective
5,"IL-4: interleukin-4, cytokine (protein, UniProt P05112 25-153, looked up) Interleukin-4: HKCDITLQEIIKTLNSLTEQKTLCTELTVTDIFAASKNTTEKETFCRAATVLRQFYSHHEKDTRCLGATAQQFHRHKQLIRFLKRLDRNLWGLAGLNSCPVKEANQSTLENFLERLKTIMREKYSKCSS",ineffective

# Test system: PC12 cells
# Test: Neuritogenesis on PC12 cells
# Type: cell-based
# Settings: dose of 10 nM, action time 36 hours
# Experimental: The PC12 cells were cultured at an initial density of 1.5×10^5 cells/ml in RPMI 1640 medium supplemented with 10% fetal calf serum and 5% horse serum. The base of the culture dishes is treated with a 0.1 wt % polylysine or collagen solution in order to cause adhesion of the cells. The supernatant cells are removed after 12 hours and then treated with or without nerve growth factor (NGF) at 10 ng/ml, with or without the compound of example 6 or of example 7. The cells are observed by phase-contrast microscopy.
# The PC12 cells treated by means of the compound of example 6 were treated at a dose of 10 nM, the action time of the compound being 36 hours.
row,Molecule,change in morphology of PC12 cells toward dendrites
1,"CC(C)CCC[C@@H](C)[C@H]1CC[C@H]2C3=C[C@@H](NCCCCNCCCN)[C@@]4(O)C[C@@H](O)CC[C@]4(C)[C@H]3CC[C@]12C [Example 6, cholest-7-ene-3β,5α-diol-6β-N-[1-N-1-(3-aminopropyl)butane-1,4-diamine]]",formation of dendrites

# Test system: P19 cells
# Test: Neuritogenesis on mouse P19 cells
# Type: cell-based
# Settings: dose of 10 nM; after 12 hours of treatment
# Experimental: The P19 cells are derived from a mouse embryonic carcinoma. They are pluripotent cells, which can change into neurones or into glial cells by treatment with retinoic acid (J. Cell. Biol. 1982 August, 94 (2): pp. 253-262) and can differentiate into muscle cells in the presence of dimethyl sulfoxide (Nature 1982-9 September, 299(58 79): pp. 165-167).
# The P19 cells are cultured in the presence of an “RPMI 1640” culture medium sold by the company “Gibco BRL”, this medium being supplemented with 2 mM of glutamine and 4% by weight of fetal calf serum. They are inoculated at low density (10 000 cells per 60-mm well). The P19 cells are treated with the compound of example 6; they are then observed by phase-contrast microscopy. […]
row,Molecule,change in morphology of P19 cells toward dendrites
1,"CC(C)CCC[C@@H](C)[C@H]1CC[C@H]2[C@@H]3C[C@@H](NCCCCNCCCN)[C@@]4(O)C[C@@H](O)CC[C@]4(C)[C@H]3CC[C@]12C [Example 4, cholestane-3β,5α-diol-6β-N-[1-N1-(3-aminopropyl)butane-1,4-diamine]]",same observations
2,"CC[C@H](CC[C@@H](C)[C@H]1CC[C@H]2[C@@H]3C[C@@H](NCCCNCCCCNCCCN)[C@@]4(O)C[C@@H](O)CC[C@]4(C)[C@H]3CC[C@]12C)C(C)C [Example 42, sitostane-3β,5α-diol-6β-N-[N,N′-bis(aminopropyl)butane-1,4-diamine]]",same observations
3,"CC(C)[C@H](C)CC[C@@H](C)[C@H]1CC[C@H]2[C@@H]3C[C@@H](NCCCNCCCCNCCCN)[C@@]4(O)C[C@@H](O)CC[C@]4(C)[C@H]3CC[C@]12C [Example 43, campestane-3β,5α-diol-6β-N-[N,N′-bis(aminopropyl)butane-1,4-diamine]]",same observations
4,"CC(C)CCC[C@@H](C)[C@H]1CC[C@H]2C3=C[C@@H](NCCCNCCCCNCCCN)[C@@]4(O)C[C@@H](O)CC[C@]4(C)[C@H]3CC[C@]12C [Example 7, cholest-7-ene-3β,5α-diol-6β-N-[N,N′-bis(3-aminopropyl)butane-1,4-diamine]]",same observations
5,"CC(C)CCC[C@@H](C)[C@H]1CC[C@H]2[C@@H]3C[C@@H](NCCCNCCCCNCCCN)[C@@]4(O)C[C@@H](O)CC[C@]4(C)[C@H]3CC[C@]12C [Example 5, cholestane-3β,5α-diol-6β-N-[N,N′-bis(3-aminopropyl)butane-1,4-diamine]]",same observations
6,"CC(C)[C@H](C)CC[C@@H](C)[C@H]1CC[C@H]2[C@@H]3C[C@@H](NCCCCNCCCN)[C@@]4(O)C[C@@H](O)CC[C@]4(C)[C@H]3CC[C@]12C [Example 45, campestane-3β,5α-diol-6β-N-[1-N-1-(3-aminopropyl)butane-1,4-diamine]]",same observations
7,"CC[C@H](CC[C@@H](C)[C@H]1CC[C@H]2[C@@H]3C[C@@H](NCCCCNCCCN)[C@@]4(O)C[C@@H](O)CC[C@]4(C)[C@H]3CC[C@]12C)C(C)C [Example 44, sitostane-3β,5α-diol-6β-N-[1-N1-(3-aminopropyl)butane-1,4-diamine]]",same observations
8,"CC(C)CCC[C@@H](C)[C@H]1CC[C@H]2C3=C[C@@H](NCCCCNCCCN)[C@@]4(O)C[C@@H](O)CC[C@]4(C)[C@H]3CC[C@]12C [Example 6, cholest-7-ene-3β,5α-diol-6β-N-[1-N-1-(3-aminopropyl)butane-1,4-diamine]]",formation of dendrites

# Test system: U-937 cells
# Test: Production of IL-12p70 and IL-10 by the dendritic cells (ELISA)
# Type: cell-based, human
# Settings: treatments extending over a period of two weeks
# Experimental: The culture supernatants are frozen at a temperature of −80° C. until the time of testing for the presence of cytokines. The presence of IL-12p70 and IL-10 is measured using ELISA kits obtained from “Endogen” (Woburn, Mass., USA).
# This phenomenon continues for the two weeks of treatment.
row,Molecule,transcription/production of IL-10
1,"sitostane-3β,5α-diol-6β-N-{[2-(1H-imidazol-4-yl)ethyl]ethylamine} [Example 46]",same observations
2,"campestane-3β,5α-diol-6β-N-{[2-(1H-imidazol-4-yl)ethyl]ethylamine} [Example 47]",same observations
